In ChEMBL document CHEMBL1201862, “PubChem BioAssay data set” (2004):
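Cultured in 96-well plates, cells were exposed to test compound for 48 hours across five concentrations. GI50 marks 50% less growth.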 Activity calls are given as the source filed them. No stated cut-off is given here; in the data, active = GI50 up to about 1.1 µM and inactive = higher.

Experiments:
Experiment in all cases: NCI tumour cell line growth inhibition, 48 h
[1] = test system: BT-549
[2] = test system: CAKI-1
[3] = test system: CCRF-CEM
[4] = test system: HCT-116
[5] = test system: HOP-62
[6] = test system: IGROV-1
[7] = test system: LOX IMVI
[8] = test system: MCF7
[9] = test system: MOLT-4
[10] = test system: NCI-H226
[11] = test system: OVCAR-3
[12] = test system: OVCAR-8
[13] = test system: PC-3
[14] = test system: RXF 393
[15] = test system: SF-268
[16] = test system: SK-MEL-2
[17] = test system: SN12C
[18] = test system: SNB-75
[19] = test system: UACC-62
[20] = test system: K562

Measured: GI50

CC1(C)C(c2ccccc2)=[N+]([O-])C(C)(C)N1O
inactive: [1] > 10 µM | [2] > 10 µM | [3] > 10 µM | [4] > 10 µM | [5] > 10 µM | [6] > 10 µM | [7] > 10 µM | [8] > 10 µM | [9] > 10 µM | [10] > 10 µM | [11] > 10 µM | [12] > 10 µM | [13] > 10 µM | [14] > 10 µM | [15] > 10 µM | [16] > 10 µM | [17] > 10 µM | [18] > 10 µM | [19] > 10 µM

COC(=O)/C=C/[C@H]1[C@H](C)N1S(=O)(=O)c1ccc(C)cc1 (stereo not given in full)
inactive: [1] > 100 µM | [2] > 100 µM | [3] > 100 µM | [4] 41.8 µM | [5] > 100 µM | [6] > 100 µM | [20] > 100 µM | [7] 61.7 µM | [8] 64.3 µM | [9] 70.5 µM | [10] > 100 µM | [11] 58.7 µM | [12] > 100 µM | [13] > 100 µM | [14] > 100 µM | [15] > 100 µM | [16] 68.7 µM | [17] > 100 µM | [19] > 100 µM

Nc1ccc(-c2nc3ccccc3s2)cc1C#Cc1ccccc1
inactive: [1] 17.1 µM | [2] 15.8 µM | [3] 29.2 µM | [4] 14.4 µM | [5] 14.5 µM | [6] 10.7 µM | [20] 31 µM | [7] 19 µM | [8] 1.59 µM | [9] 32.5 µM | [10] 20.1 µM | [11] 15.5 µM | [12] 19.8 µM | [13] 18.5 µM | [14] 17.3 µM | [15] 21.1 µM | [17] 18.8 µM | [18] 25.3 µM | [19] 17.9 µM

Cc1cc2[nH]c3c(C#N)c(-c4ccccc4)c(CN4CCOCC4)c(=O)n3c2cc1C
inactive: [1] > 100 µM | [2] > 100 µM | [3] > 100 µM | [4] > 100 µM | [5] > 100 µM | [7] > 100 µM | [8] > 100 µM | [10] > 100 µM | [11] > 100 µM | [12] > 100 µM | [13] > 100 µM | [14] > 100 µM | [15] > 100 µM | [16] > 100 µM | [17] > 100 µM | [18] 40.7 µM

COc1c(C)c(OCC=C(C)C)cc(CO)c1CO
inactive: [1] 42.9 µM | [2] 46.8 µM | [3] 44.9 µM | [4] 32.6 µM | [5] 56.5 µM | [6] 38.2 µM | [20] 26.3 µM | [7] 28.9 µM | [8] 38.5 µM | [9] 26.7 µM | [10] 87.3 µM | [12] 36 µM | [13] 36 µM | [14] 10.7 µM | [15] > 100 µM | [16] 71.4 µM | [17] 88.3 µM | [18] 47.6 µM | [19] 60.8 µM

COC(=O)/C(=N\N)C(C(=O)C(=O)Nc1cccc([N+](=O)[O-])c1)c1nc2ccc(C(=O)c3ccccc3)cc2nc1O (stereo not given)
inactive: [1] > 100 µM | [2] > 100 µM | [3] 22.3 µM | [4] > 100 µM | [5] 73.1 µM | [6] > 100 µM | [7] > 100 µM | [8] 54.2 µM | [9] 15 µM | [10] > 100 µM | [11] > 100 µM | [12] > 100 µM | [13] 84.5 µM | [14] 16.9 µM | [15] > 100 µM | [16] > 100 µM | [17] > 100 µM | [18] > 100 µM | [19] 96.2 µM

CC1C2CC(CC23OCC(CCl)O3)C1(C)C (stereo not given)
inactive: [1] > 100 µM | [2] > 100 µM | [3] > 100 µM | [4] > 100 µM | [5] > 100 µM | [6] > 100 µM | [20] > 100 µM | [7] > 100 µM | [8] > 100 µM | [9] > 100 µM | [10] > 100 µM | [11] > 100 µM | [12] > 100 µM | [13] > 100 µM | [14] > 100 µM | [15] > 100 µM | [17] > 100 µM | [18] > 100 µM | [19] > 100 µM

C=C1C(=O)CCC1C(=O)O (stereo not given)
inactive: [1] > 100 µM | [3] > 100 µM | [4] > 100 µM | [5] > 100 µM | [6] > 100 µM | [20] > 100 µM | [7] > 100 µM | [8] > 100 µM | [9] > 100 µM | [10] > 100 µM | [11] > 100 µM | [12] > 100 µM | [13] > 100 µM | [14] > 100 µM | [15] > 100 µM | [16] > 100 µM | [17] > 100 µM | [18] 11.8 µM | [19] > 100 µM

COc1ccc(N(C(=O)Nc2ccc(Cl)c(Cl)c2)c2ccccc2)cc1
inactive: [1] > 10 µM | [2] > 10 µM | [3] > 10 µM | [4] > 10 µM | [5] > 10 µM | [6] > 10 µM | [20] > 10 µM | [7] > 10 µM | [8] > 10 µM | [9] > 10 µM | [10] > 10 µM | [11] > 10 µM | [12] > 10 µM | [13] > 10 µM | [14] > 10 µM | [15] > 10 µM | [17] > 10 µM | [19] > 10 µM

COc1ccc(-c2c3ccccc3c(-c3ccc(OCCBr)cc3)c3ccccc23)cc1
inactive: [1] > 100 µM | [2] > 100 µM | [3] > 100 µM | [4] > 100 µM | [5] > 100 µM | [6] > 100 µM | [7] > 100 µM | [8] > 100 µM | [9] > 100 µM | [10] > 100 µM | [11] > 100 µM | [12] > 100 µM | [13] > 100 µM | [14] > 100 µM | [15] > 100 µM | [16] > 100 µM | [17] > 100 µM | [18] 43.9 µM | [19] > 100 µM

COc1cc2c(cc1OC)C(=O)/C(=C/c1ccc([N+](=O)[O-])cc1)CC2
inactive: [1] > 10 µM | [2] > 10 µM | [3] > 10 µM | [4] > 10 µM | [5] > 10 µM | [6] > 10 µM | [20] > 10 µM | [7] > 10 µM | [8] > 10 µM | [9] > 10 µM | [10] > 10 µM | [11] > 10 µM | [12] > 10 µM | [13] > 10 µM | [14] > 10 µM | [15] > 10 µM | [16] > 10 µM | [17] > 10 µM | [19] > 10 µM
